# From patent US20100233278A1, “RAPIDLY DISINTEGRATING SOLID PREPARATION” (priority 2007, published 2010)
# Experiment: dissolution rate of saccharide or sugar alcohol, 6-vessel dissolution tester
# Type: physicochemical
# Conditions: 2 g in desalted water 500 mL, 37° C., paddle 50 min^−1; rate constant k per surface area
# Description: In the present invention, the “dissolution rate” is obtained by using a 6-vessel dissolution tester (NTR-6100, Toyama Sangyo Co., Ltd.). The paddle rotation speed was 50 min^−1, and saccharide or sugar alcohol was added by 2 g to desalted water (500 mL), which is a test solution, heated to 37° C. Samples were taken at given time intervals after addition, changes in the dry weight of the samples per unit time were calculated, and dissolution rate constant k was calculated by the Noyes-Whitney equation. The dissolution rate constant k was converted to value per surface area of each saccharide or sugar alcohol and the obtained value was taken as dissolution rate [1/min·m^2]. As the specific surface area, the value measured by a laser diffraction particle size analyzer [Mastersizer] of Malvern Instruments Ltd. was used. The tablets obtained in the Examples and Comparative Examples were measured for hardness, disintegration time in the oral cavity, disintegration time (ODT) by the following test methods. In addition, the dissolution rate of saccharide and sugar alcohol used in the Examples and Comparative Examples was measured. • (1) The hardness was measured by a tablet hardness tester (WHT-2ME, Pharma Test). The test was performed using 3 or 10 tablets, and the average value is shown. • (2) As for the disintegration time in the oral cavity, the tablet of the present invention was placed in the oral cavity of a healthy adult without water, and the time necessary for complete disintegration of the tablet with only saliva was measured. • (3) The disintegration time (ODT) was measured by an Orally Disintegrating Tablet Tester (ODT-101, Toyama Sangyo Co., Ltd.). As for the measurement conditions, a weight (15 g, weight diameter 15 mm) was used at a rotating speed of 50 rpm, and an average of 3 measures was taken. • (4) The “dissolution rate” was measured by using a 6-vessel dissolution tester (NTR-6100, Toyama Sangyo Co., Ltd.). The paddle rotation speed was 50 min^−1, and saccharide or sugar alcohol was added by 2 g to desalted water (500 mL), which is a test solution, heated to 37° C. Samples were taken at given time intervals after addition, changes in the dry weight of the samples per unit time were calculated, and dissolution rate constant k was calculated by the Noyes-Whitney equation. The dissolution rate constant k was converted to value per the surface area of each saccharide or sugar alcohol and the obtained value was taken as dissolution rate [1/min·m^2]. As the specific surface area, the value measured by a laser diffraction particle size analyzer [Mastersizer] of Malvern Instruments Ltd. was used.
row,SMILES,dissolution rate
1,OC[C@@H](O)[C@@H](O)CO [Erythritol],11.99 1/min·m^2
2,OC[C@@H](O)[C@@H](O)[C@H](O)[C@H](O)CO [β-form mannitol],2.28 1/min·m^2
3,OC[C@@H](O)[C@@H](O)[C@H](O)[C@H](O)CO [α-form mannitol],4.62 1/min·m^2
4,OC[C@H]1O[C@@](CO)(O[C@H]2O[C@H](CO)[C@@H](O)[C@H](O)[C@H]2O)[C@@H](O)[C@@H]1O [Purification sucrose],2.80 1/min·m^2
5,OC[C@H]1O[C@@H](O[C@H]2[C@H](O)[C@@H](O)C(O)O[C@@H]2CO)[C@H](O)[C@@H](O)[C@H]1O (stereo partly drawn) [Lactose],5.68 1/min·m^2
6,OC[C@@H](O)[C@H](O)[C@@H](O)CO [Xylitol],3.57 1/min·m^2
